“And” between values parts separate entries of the source, which are not always exact repeats. Equal values may be shown once. “Also recorded” adds a separate entry of the source. Read-outs that look alike come from different tables or passages of the source.
Experiments:
[1] = tested on: influenza A Puerto Rico 8/34/H1N1 (PR8) virus; assay: microbe, parasite or virus in culture; type: cell-based; settings: for IC50: Influenza A virus, A549, 24 h, read-out: IC50 (concentration causing 50% reduction in viral infection); for Selectivity Index (SI): ratio CC50/IC50, A549
[2] = MTT cytotoxicity assay; type: cell-based, human; settings: human
Description: (§1) The cytotoxicity of RSV derivatives was evaluated on A549 cells using MTT (3-(4,5-dimethylthiazol-2-yl)-2,5-diphenyl tetrazolium bromide) reagent (Sigma-Aldrich, St. Louis, MO, USA). In this assay, cells were seeded in a 96-well plate at a concentration of 2 × 10^4/well in DMEM without phenol red and supplemented with 10% FBS. The compounds were dissolved in DMSO and added to the cell monolayer. After 24 h, 10 µL of the 5 mg/mL solution of MTT was added to the cell culture, which was incubated at 37 °C for 3 h. Then, the medium was solubilized in absolute isopropanol containing 0.1 N HCl. The absorbance of converted dye was measured in an ELISA plate reader at a wavelength of 590 nm. The results were used to calculate the 50% cytotoxic concentration (CC50), defined as the concentration of RSV derivatives required to reduce cell viability by 50% compared with the solvent-treated (DMSO) control condition.

[3] = tested on: influenza A PR/8/H1N1 virus; type: cell-based
[4] = tested on: influenza A PR/8/H1N1 virus; type: cell-based; remark: listed apart in the source
[5] = tested on: influenza A PR/8/H1N1 virus; type: cell-based; settings: supernatants from A549 treated with 10-30 μg/mL, 24 h
[6] = tested on: GSH-mediated antioxidant response; assay: Glutathione assay in infected A549 cells; type: cell-based, human; settings: A549, 24 h PR8 infection and treatment
Description: The total glutathione was analyzed by the Glutathione Assay Kit (ADI-900-160 Enzo) following the manufacturer’s instructions. For GSSG quantification, the samples were deproteinized with metaphosphoric acid, and an aliquot was incubated with 2-vinylpyridine to derivatize the reduced form, GSH [46]. The GSH levels were obtained by the subtraction of GSSG from the total glutathione and then normalized to the protein content of each sample determined by the Bradford method (Bio-Rad, Hercules, CA, USA).

[7] = tested on: A549 cells; assay: MTT cytotoxicity assay; type: cell-based, human
Description: as §1

[8] = tested on: GSH level; parameters: method as in PMID 15838800; settings: infected conditions; cited from earlier work
[9] = A549, MTT, 24 h, read-out: CC50 (concentration required to reduce cell viability by 50%)

| SMILES | IC50 [1] | Selectivity Index (SI) [1] | CC50 at 24 h [2] | rescue of GSH-mediated antioxidant response (total glutathione, GSH/GSSG) [6] | further results |
| --- | --- | --- | --- | --- | --- |
| Oc1ccc(/C=C/c2ccccc2)cc1Cl [Compound 1] | 20.7 µg/mL and 89 µM | 4.2 | 87.3 µg/mL and 378 µM |  |  |
| Oc1ccc(/C=C/c2ccc(Cl)cc2Cl)cc1Cl [Compound 2] | 13.5 µg/mL and 45 µM | 2.9 | 39.5 µg/mL and 131 µM |  |  |
| Oc1ccc(/C=C/c2ccc(Cl)cc2Cl)cc1 [Compound 3] | 12.2 µg/mL and 46 µM | 2.4 | 30.3 µg/mL and 114 µM |  |  |
| Oc1ccc(/C=C/c2ccc(C(F)(F)F)cc2)cc1Cl [Compound 4] | 14.6 µg/mL and 48 µM | 2.6 | 38.8 µg/mL and 129 µM |  |  |
| Oc1ccc(/C=C/c2ccc(C(F)(F)F)cc2)cc1 [Compound 5] | 23.4 µg/mL and 88 µM | 2.5 | 59 µg/mL and 223 µM |  |  |
| O=[N+]([O-])c1ccc(/C=C/c2ccc(O)c(Cl)c2)cc1 [Compound 6] | 17.1 µg/mL and 62 µM | 12.4 |  | do not rescue | inhibition of HA expression [1]: 75%; CC50 at 24 h [2, 9]: 212 µg/mL and 770 µM; early viral nucleoprotein (NP) expression [3]: decrease; viral titer / viral particle production (HAU) [4]: markedly decreased; also recorded: drastically reduced; HA protein expression on MDCK cells infected with supernatants [5]: markedly reduced |
| O=[N+]([O-])c1ccc(/C=C/c2ccc(O)cc2)cc1 [Compound 7] | 19.5 µg/mL and 80 µM | 5.9 |  | do not rescue | CC50 at 24 h [2, 9]: 116 µg/mL and 481 µM; early viral nucleoprotein (NP) expression [3]: decrease; viral titer / viral particle production (HAU) [4]: markedly decreased; also recorded: drastically reduced; HA protein expression on MDCK cells infected with supernatants [5]: markedly reduced |
| N#Cc1ccc(/C=C/c2ccc(O)cc2)cc1 [Compound 8] | 45.1 µg/mL and 203 µM | 2 | 92 µg/mL and 415 µM |  |  |
| COc1ccc(/C=C/c2ccc(O)cc2)cc1 [Compound 9] | 31.7 µg/mL and 104 µM | 3.3 | 106 µg/mL and 466 µM |  |  |
| O=[N+]([O-])c1ccc(/C=C/c2ccc(O)c(Br)c2)cc1 [Compound 12, (E)-2-Bromo-4-(4-Nitrostyryl)Phenol] |  |  |  | do not rescue | cytotoxicity on the A549 cell monolayer [7]: did not show cytotoxicity; melting point: 200.2 to 200.4 °C |
| O=[N+]([O-])c1cc(/C=C/c2ccc(Cl)cc2)ccc1O [Compound 13, (E)-4-(4-Chlorostyryl)-2-Nitrophenol] |  |  |  | do not rescue | cytotoxicity on the A549 cell monolayer [7]: did not show cytotoxicity; early viral nucleoprotein (NP) expression [3]: decrease; melting point: 176.5 to 177.9 °C |
| Oc1ccc(C=Cc2cc(O)cc(O)c2)cc1 [RSV, 3,4′,5-trihydroxystilbene] |  |  |  |  | rescue of GSH level [8]: did not rescue |
